Reference: US6300347A, “2-substituted 4,5-diaryl imidazoles” (Novartis AG, priority 1997, dated 2001)

Columns and labels:
p38 MAP kinase = target: T1, p38 MAP kinase (Mus musculus, UniProt P47811); test: p38 MAP kinase Assay (GST-ATF-2 phosphorylation, His-p38 MAP kinase); type: biochemical, murine; details: ATP 120 μM; substrate GST-ATF-2; 1 h at 37° C; read-out: IC50 for p38 MAP kinase inhibition
T1 construct: full length murine p38 MAP kinase; His tag; made in house; host or cells: E. coli
Protocol: The substrate (GST-ATF-2; a fusion protein comprising amino acids 1-109 of ATF-2 and the GST protein obtained by expression in E. coli) is coated onto the wells of microtiter plates (50 μl/well; 1 μg/ml in PBS/0.02% Na azide) overnight at 4° C. The following day, the microtiter plates are washed four times with PBS/0.5% Tween 20/0.02% Na azide and are blocked with PBS/2% BSA/0.02% Na Azide for 1 h at 37° C. Plates are washed again 4 times with PBS/0.5% Tween 20/0.02% Na azide. The kinase cascade reaction is then started by adding the following reactants in 10 μl aliquots to a final reaction volume of 50 μl.
1. Agents of the Invention titrated from 10 to 0.001 μM in 10-fold dilutions or solvent (DMSO) or H2 O.
2. Kinase buffer (5×); pH 7.4; 125 mM Hepes (Stock at 1M; Gibco #15630-056). […]
After 1 h at 37° C. the kinase reaction is terminated by washing the plates four times as previously described. Phosphorylated GST-ATF-2 is then detected by adding: […]
After step 1,2 and 3 the microtiter plates are washed four times with PBS/0.5% Tween 20/0.02% Na azide. After step 4, the plates are read in a Bio-Rad microplate reader in a dual wavelength mode (measurement filter 405 nm and reference filter 490 nm). The background value (without ATP) is subtracted and IC50 values are calculated using the Origin computer program (4 parameter logistic function).

[1] = system: TNF-α release from hPBMCs; test: Assay for Inhibition of TNF-α release from hPBMCs; type: cell-based; details: Homo sapiens, 3 h, IFNg (100 U/ml) and LPS, three hours, TNF-α by ELISA, read-out: IC50, suppression of TNF release
Protocol: Human peripheral blood mononuclear cells (hPBMCs) are prepared from the peripheral blood of healthy volunteers using ficoll-hypaque density separation accordinc to the method of Hansel et al., J. Imm. […] Cells are incubated with serial dilutions of the test compounds for 30 minutes at 37° C. prior to the addition of IFNg (100 U/ml) and LPS (5 mg/ml) and subsequently further incubated for three hours. Incubation is terminated by centrifugation at 1400 RPM for 10 min. TNF-α in the supernatant is measured using a commercial ELISA (Innotest hTNFa, available from Innogenetics N.V., Zwijnaarde, Belium). Agents of the Invention are tested at concentrations of from 0 to 10 mM.

TNF-α = test: Assay for Inhibition of TNF-α Production in LPS Stimulated Mice; type: in vivo; details: LPS 20 mg/kg i.v.; OF1 mice (female); plasma TNF 1 hour after LPS
Protocol: Assay for Inhibition of TNF-α Production in LPS Stimulated Mice
Injection of lipopolysaccharide (LPS) induces a rapid release of soluble tumour necrosis factor (TNF-α) into the periphery. This model is be used to analyse prospective blockers of TNF release in vivo.
LPS (20 mg/kg) is injected i.v. into OF1 mice (female, 8 week old). One (1) hour later blood is withdrawn from the animals and TNF levels are analysed in the plasma by an ELISA method using an antibody to TNF-α. […] Compounds to be evaluated are given either orally or s.c. 1 to 4 hours prior to the LPS injection. Inhibition of LPS-induced TNF-release is taken as the readout.

T1 sequence (P47811 whole entry): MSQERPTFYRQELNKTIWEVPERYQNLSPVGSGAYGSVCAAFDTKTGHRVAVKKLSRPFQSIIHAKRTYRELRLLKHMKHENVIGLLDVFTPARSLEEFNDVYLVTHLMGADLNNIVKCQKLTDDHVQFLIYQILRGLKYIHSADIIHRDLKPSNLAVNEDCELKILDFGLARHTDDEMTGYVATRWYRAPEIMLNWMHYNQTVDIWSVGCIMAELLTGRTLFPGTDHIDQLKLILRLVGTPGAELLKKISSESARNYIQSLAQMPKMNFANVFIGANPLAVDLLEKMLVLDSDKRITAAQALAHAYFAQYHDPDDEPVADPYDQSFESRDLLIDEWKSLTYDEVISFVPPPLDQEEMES

IC50 (p38 MAP kinase): ~10 nM
IC50 [1]: ~90 nM
SMILES: Nc1nc(N)c(F)c(-c2nc(-c3ccc(F)cc3)c(-c3ccncc3)[nH]2)c1F [Example 17, 4-(4-Fluorophenyl)-5-(4-pyridyl) 2-(2,6-diamino-3,5-difluoropyridinyl)imidazole]
inhibition of TNF production (TNF-α): about 80%
